In patent US11109593B2, “Isoxazolin-5-one derivative and herbicide containing same as active ingredient” (HOKKO CHEMICAL INDUSTRY CO., LTD., priority 2017, dated 2021):

Legend:
Assay type in all cases: in vivo
Echinochloa crus-galli [1] = assay: Test Example 1: herbicidal effect test by treatment of rice paddy soil (immediately after seeding)
Summary of the method: (§1)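 Flooded paddy pot test in a glass greenhouse: emulsion diluted in water, dropped at 120 g a.i. per 10 ares just after sowing, water depth kept about 3 cm. Dry-weight reduction relative to untreated plants is scored at 14 days.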

[2] = test system: broad leaf weeds (Lindernia pyxidaria and Monochoria vaginalis); assay: as above
Summary of the method: as §1

Scirpus juncoides [3] = assay: as above
Summary of the method: as §1

Echinochloa crus-galli [4] = assay: Test Example 2: herbicidal effect test by treatment during growing period in paddy rice cultivation (seven days after seeding); conditions: for Herbicidal rate (%) Echinochloa crus-galli: 120 g/10a active ingredient, assessed 14 days after treatment, dry weight vs untreated area; for herbicidal rate, Echinochloa crus-galli: 120 g/10a, rated 14 days after treatment, paddy soil pots
Summary of the method: (§2)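 Herbicidal rate = (1 − treated/untreated mean dry weight) × 100, scored 14 days after application, two replicates per rate. Treatment: diluted emulsion dropped onto paddy water seven days after sowing, 120 g active ingredient per 10 ares, in a glass greenhouse.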

[5] = test system: broad leaf weeds (Lindernia pyxidaria and Monochoria vaginalis); assay: as above; conditions: for Herbicidal rate (%) Lindernia pyxidaria / Herbicidal rate (%) Monochoria vaginalis: 120 g/10a active ingredient, assessed 14 days after treatment, dry weight vs untreated area; for herbicidal rate, Lindernia pyxidaria / herbicidal rate, Monochoria vaginalis: 120 g/10a, rated 14 days after treatment, paddy soil pots
Summary of the method: as §2

Scirpus juncoides [6] = assay: as above; conditions: for Herbicidal rate (%) Scirpus juncoides: 120 g/10a active ingredient, assessed 14 days after treatment, dry weight vs untreated area; for herbicidal rate, Scirpus juncoides: 120 g/10a, rated 14 days after treatment, paddy soil pots
Summary of the method: as §2

Chenopodium album = assay: Test Example 3: herbicidal effect test by treatment of dry field farming soil (one day after seeding); conditions: 120 g/10a active ingredient, evaluated 14 days after treatment
Procedure: (§3) This test was conducted in a double system per one agent solution concentration area, and the herbicidal rates (%) were determined by the following equation (Math. 1) on 14 days after the treatment with the agents. Herbicidal Rate (%)={1-(Average Dry Weight (g) of Plant of Treated Area)/(Average Dry Weight (g) of Plant of Untreated Area)}×100 [Math. 1]
(§4) Herbicidal Effect Test by Treatment of Dry Field Farming Soil
(§5) Pots with a size of 36 cm^2 were filled with a dry field farming soil (alluvium). The soil of the top layer of 1 cm and seeds of weeds, namely southern crabgrass, Echinochloa crus-galli, Chenopodium album and Amaranthus viridis, 20 seeds each, were evenly mixed, and the top layer was gently pressed. Emulsions prepared using the compounds in Table 5 below according to Formulation Example 5 were diluted with water one day after seeding, and the water-diluted agent solutions were sprayed to the soil surfaces at a ratio of 100 liters per 10 ares. The converted amount of the applied active ingredient corresponded to 120 g per 10 ares. The herbicidal effects were evaluated by the same standard as that in Test Example 1 on 14 days after the treatment with the agents. […] The compound numbers in Table 5 are the same as those in Table 1 and Table 2 above.

Echinochloa crus-galli [7] = assay: as above; conditions: 120 g/10a active ingredient, evaluated 14 days after treatment
Procedure: as §3, §4, §5

Amaranthus viridis = assay: as above; conditions: 120 g/10a active ingredient, evaluated 14 days after treatment
Procedure: as §3, §4, §5

southern crabgrass = assay: as above; conditions: 120 g/10a active ingredient, evaluated 14 days after treatment
Procedure: as §3, §4, §5

[8] = 120 g/10a active ingredient, dry weight vs untreated area, 14 days after treatment
[9] = Lindernia pyxidaria, 120 g/10a active ingredient, dry weight vs untreated area, 14 days after treatment
[10] = Monochoria vaginalis, 120 g/10a active ingredient, dry weight vs untreated area, 14 days after treatment
[11] = 120 g/10a active ingredient, 14 days after treatment, dry weight vs untreated area
[12] = Lindernia pyxidaria, 120 g/10a active ingredient, 14 days after treatment, dry weight vs untreated area
[13] = Monochoria vaginalis, 120 g/10a active ingredient, 14 days after treatment, dry weight vs untreated area

SMILES	Herbicidal rate (%) Echinochloa crus-galli (Echinochloa crus-galli [1]; [8]) [%]	Herbicidal rate (%) Lindernia pyxidaria [2, 9] [%]	Herbicidal rate (%) Monochoria vaginalis [2, 10] [%]	Herbicidal rate (%) Scirpus juncoides (Scirpus juncoides [3]; [8]) [%]	Herbicidal rate (%) Echinochloa crus-galli (Echinochloa crus-galli [4]) [%]	Herbicidal rate (%) Lindernia pyxidaria [5] [%]	Herbicidal rate (%) Monochoria vaginalis [5] [%]	Herbicidal rate (%) Scirpus juncoides (Scirpus juncoides [6]) [%]	herbicidal rate, Chenopodium album (Chenopodium album) [%]	herbicidal rate, Echinochloa crus-galli (Echinochloa crus-galli [7]) [%]	herbicidal rate, Amaranthus viridis (Amaranthus viridis) [%]	herbicidal rate, southern crabgrass (southern crabgrass) [%]	Herbicidal rate (%) Echinochloa crus-galli (Echinochloa crus-galli [1]; [11]) [%]	Herbicidal rate (%) Lindernia pyxidaria [2, 12] [%]	Herbicidal rate (%) Monochoria vaginalis [2, 13] [%]	Herbicidal rate (%) Scirpus juncoides (Scirpus juncoides [3]; [11]) [%]	herbicidal rate, Echinochloa crus-galli (Echinochloa crus-galli [4]) [%]	herbicidal rate, Lindernia pyxidaria [5] [%]	herbicidal rate, Monochoria vaginalis [5] [%]	herbicidal rate, Scirpus juncoides (Scirpus juncoides [6]) [%]
Cc1c(Cc2ccccc2NS(=O)(=O)C(F)(F)F)c(=O)on1CCOCC(C)C [Compound 1-156]	100	100	80	100	80	100	100	90	60	80	60	80	–	–	–	–	–	–	–	–
Cc1c(Cc2ccccc2N(S(=O)(=O)C(F)(F)F)S(=O)(=O)C(F)(F)F)c(=O)on1S(=O)(=O)C(C)C [Compound 1-1064]	–	–	–	–	–	–	–	–	80	100	80	60	90	90	90	90	70	50	80	90
Cc1c(Cc2ccccc2NS(=O)(=O)C(F)(F)F)c(=O)on1C1CCCc2ccccc21 (centres unmarked) [Compound 1-224]	100	100	100	90	90	60	80	80	90	100	100	100	–	–	–	–	–	–	–	–
CCn1oc(=O)c(Cc2ccccc2NS(=O)(=O)C(F)(F)F)c1C [Compound 1-98]	100	100	100	90	80	60	60	90	0	90	0	90	–	–	–	–	–	–	–	–
Cc1c(Cc2ccccc2NS(=O)(=O)C(F)(F)F)c(=O)on1CCSC(C)C [Compound 1-166]	100	90	90	90	100	90	90	90	60	90	60	90	–	–	–	–	–	–	–	–
Cc1c(Cc2ccccc2NS(=O)(=O)C(F)(F)F)c(=O)on1C(C)c1ccccc1 (centres unmarked) [Compound 1-203]	90	100	100	90	90	90	90	90	40	60	40	90	–	–	–	–	–	–	–	–
COCCn1oc(=O)c(Cc2ccccc2N(S(=O)(=O)C(F)(F)F)S(=O)(=O)C(F)(F)F)c1C [Compound 1-996]	90	80	80	90	70	70	80	90	–	–	–	–	–	–	–	–	–	–	–	–
CC(C)c1c(Cc2ccccc2N(S(=O)(=O)C(F)(F)F)S(=O)(=O)C(F)(F)F)c(=O)on1C(C)C [Compound 1-69]	80	70	70	90	60	40	60	60	–	–	–	–	–	–	–	–	–	–	–	–
Cc1c(Cc2ccccc2N(S(=O)(=O)C(F)(F)F)S(=O)(=O)C(F)(F)F)c(=O)on1Cc1ccc(F)cc1Cl [Compound 1-1028]	80	80	90	40	0	40	40	0	–	–	–	–	–	–	–	–	–	–	–	–
Cc1c(Cc2ccccc2N(S(=O)(=O)C(F)(F)F)S(=O)(=O)C(F)(F)F)c(=O)on1C(C)c1ccsc1 (centres unmarked) [Compound 1-1057]	–	–	–	–	–	–	–	–	–	–	–	–	90	80	80	90	80	60	80	80
Cc1c(Cc2c(Cl)cccc2NS(=O)(=O)C(F)(F)F)c(=O)on1C(C)C [Compound 1-46]	60	80	80	90	40	40	40	60	–	–	–	–	–	–	–	–	–	–	–	–
CCOC(=O)N(c1ccccc1Cc1c(C)n(CC(C)C)oc1=O)S(=O)(=O)C(F)(F)F [Compound 1-608]	70	70	80	90	90	60	80	80	–	–	–	–	–	–	–	–	–	–	–	–
Cc1c(Cc2ccccc2NS(=O)(=O)C(F)(F)F)c(=O)on1C(C)c1cccc(Cl)c1 (centres unmarked) [Compound 1-206]	90	100	100	90	60	80	90	80	–	–	–	–	–	–	–	–	–	–	–	–
